According to patent US12709733B2, “Cell culture media” (Merck Patent GmbH, priority 2019, dated 2026):
In brackets after ≈: the same amount, converted by molar mass.

Columns and labels:
[1] = Maximum solubility in water at 25° C. (saturated solution, residual mass after infrared drying); format: physicochemical; conditions: for solubility / Solubility 25° C. in g/kg (amino acid) / increase in solubility compared to the respective amino acid / Solubility 25° C. in g/kg (corresponding Lac-AA): 25° C.; for solubility: stated in description; for Solubility 25° C. in g/kg (amino acid) / increase in solubility compared to the respective amino acid / Solubility 25° C. in g/kg (corresponding Lac-AA): water; for Solubility 25° C. in g/kg (amino acid): native amino acid; for Solubility 25° C. in g/kg (corresponding Lac-AA): Lac-AA sodium salt; for maximum solubilities obtained in water: separate experiments comparing Leu, Leu sodium salt and lac-Leu sodium salt
Protocol: After sedimentation, the solution was dried using infrared (120° C., 120 min) and the residual mass was determined in g/kg.

[2] = Maximum solubility in Cellvento 4Feed depleted in Ile and Leu (turbidity measurement); format: physicochemical; conditions: for solubility at 10 min: aqueous with cosolvent or surfactant or cyclodextrin, thermodynamic from solid, pH 7.0+/-0.2, 25° C., soluble = turbidity below 5 NTU; for solubility at 10 min / times more soluble than the native amino acid in Cellvento 4Feed depleted in Ile/Leu: 113 g/L feed; for times more soluble than the native amino acid in Cellvento 4Feed depleted in Ile/Leu: pH 7.0+/-0.2
Protocol: Increasing amounts of the Lac-Leu and Lac-Ile and salts thereof were added to a cell culture feed formulation (Cellvento® 4Feed) depleted in Ile and Leu. Similarly, increasing amounts of Ile and Leu were added to the same feed formulation as a control. The total concentration of this feed formulation was 113 g/L and the pH was 7.0+/−0.2. In small scale experiments, after each addition of either the amino acid or the Lac-AA, the feed was agitated for 10 mins and turbidity was measured. The experiments were performed at room temperature (25° C.).
A solution having a turbidity below 5 NTU is considered soluble.

[3] = system: CHOK1GS suspension cell line expressing a human IgG1; assay: Fed-batch cell culture with Lac-AA replacing the amino acid in the feed, CHOK1GS clone; format: cell-based; conditions: for concentration of Ile in the spent medium / concentration of Leu in the spent medium / effect on viable cell density (VCD) compared to positive control: 17-days fed-batch; for effect on viable cell density (VCD) compared to positive control: Lac-AA replacing amino acid in feed; for IgG titer compared to control: day 14; for increase of free lactate (area under the curve of lactate concentration): supernatant over the fed-batch process
Protocol: For cell culture experiments, a CHOK1GS suspension cell line expressing a human IgG1, was used. Cells were cultivated in quadruplicate in Cellvento® 4CHO medium (Merck Darmstadt, Germany) using 50 mL spin tubes with a starting culture volume of 30 mL and a seeding density of 2×10^5 cells/mL.
Incubation was carried out at 37° C., 5% CO2, 80% humidity and an agitation of 320 rpm. The Lac-AA were added in the Feed (Cellvento® 4Feed depleted in Ile and leu) instead of their respective amino acids. The pH of all the feeds was neutral (pH 7.0+/−0.2). The positive control contained the normal amino acids whereas the negative control contained the feed depleted in the respective amino acid and without addition of Lac-AA. Feeding was carried out at days 3, 5, 7, 10, 12 and 14 at the following v/v ratios (3, 3, 6, 3, 3 and 3%). Glucose was quantified daily and adjusted to 6 g/L using a 400 g/L glucose solution. The experiment was repeated at least 3 times.
The viable cell density (VCD) and viability were evaluated with a Vi-CELL XR (Beckman Coulter, Fullerton, CA). Metabolite concentrations were monitored using a Cedex Bio HT (Roche Diagnostics, Mannheim, Germany) based on spectrophotometric and turbidometric methods. Quantification of amino acids was carried out via UPLC after derivatization with the AccQ·TagUltra® reagent kit. Derivatization, chromatography and data analysis were carried out following the supplier recommendations (Waters, Milford, MA).

[4] = system: CHOK1GS suspension cell line expressing a human IgG1; assay: Quality of the antibody produced in the fed-batch process (glycosylation, aggregation/fragmentation, charge variants); format: cell-based; conditions: IgG1 purified from supernatant
Protocol: The quality of the antibody produced in the control fed-batch process (with feed containing Ile and Leu) was compared to the quality of the antibody produced with feed depleted in either Leu and Ile and supplemented with either Lac-Leu or Lac-Ile.
The antibody was purified from the cell culture supernatant using protein A PhyTips® (PhyNexus Inc, San Jose, CA). Glycosylation patterns were analyzed by capillary gel electrophoresis with laser-induced fluorescence (CGE-LIF) after derivatization using the GlykoPrep®-plus Rapid N-Glycan Sample Preparation kit with 8-aminopyrene-1,3,6-trisulfonic acid trisodium (APTS) (Prozyme, Hayward, CA) according to the manufacturer's instructions. […] After a cleaning step to remove the remaining APTS, the relative amounts of glycans were determined using the Pharmaceutical Analysis System CESI8000 Plus (Sciex, Washington, USA) with a LIF detector (Ex: 488 nm, Em: 520 nm). […]
Antibody aggregation and fragmentation were measured using size exclusion chromatography on an Water Acquity UPLC system using a TSKgel SuperSW3000 column (Tosoh Bioscience). […] The sample concentration was adjusted to 1.0 mg/mL after the IgG purification using the storage buffer and the detection was performed using the absorbance at 214 nm. […]

[5] = Stability of Lac-AA in Cellvento 4Feed-Ile/Leu by LC-MS; format: physicochemical; conditions: stored up to 3 months at 4° C. or RT protected from light
Protocol: To monitor the stability of Lac-AA in the complex feed mixture, a targeted quantitative LC-MS method was developed. Serial dilutions of Lac-Leu and Lac-Ile in Cellvento® 4Feed—Ile/Leu pH 7.0 were performed from 100 mM to 100 μM to determine the linearity of the method. A 200-fold dilution in water was performed prior to LC-MS analysis. The method was developed on a UHPLC (Vanquish, Thermo Fisher) coupled with an ESI-Q-ToF mass spectrometer (Impact II, Bruker Daltonics).
Briefly, 1 μL of sample were loaded in 99.9% buffer A (20 mM ammonium formate/0.1% FA) onto a XSelect HSS T3 column (2.1×150 mm, 3.5 μm, Waters) thermostated at 40° C. with a flowrate of 300 μL/min and eluted with a multistep gradient of buffer B (100% methanol) presented in Table 2.
LC-MS analyses were performed using the Impact II mass spectrometer equipped with an ESI source (Bruker Daltonics). MS acquisition was performed in negative mode with end plate offset and capillary voltages set at 500 and 3500 V, respectively. Nebulizer and dry gas (250° C.) were set at 1.4 bar and 9.0 L/min, respectively. MS spectra were acquired over the m/z range 20-1000 with a scan rate of 5 Hz. […]
Using the method previously developed, the stability of Lac-Ile and Lac-Leu in Cellvento® 4Feed-Ile/Leu was monitored in samples stored at 4° C. and RT protected from light for 3 months.

[6] = system: CHODG44 clone producing an IgG1; assay: Fed-batch experiments with a CHODG44 clone; format: cell-based
Description: Results (FIG. 16, 17, 18) indicate a similar VCD and IgG titer for the Lac-Leu and Lac-Ile conditions compared to the control positive control. […] The explanation for this difference in behavior between CHOK1GS cells and this DG44 cell line is currently unknown. The Leu and Ile concentrations in the spent media (FIG. 19 and) decreased during the first day of the FB culture to finally increase again after D7. This behavior is similar to the behavior seen for CHOK1GS cells and indicate a slow release process of the free AA from the derivatives.

CC[C@H](C)[C@H](N)C(=O)O [Isoleucine]
solubility [1]: 32.4 g/kg
Solubility 25° C. in g/kg (amino acid) [1]: 32.4 g/kg
solubility at 10 min [2]: ~105 mM (≈ 13.8 mg/mL)

CC[C@H](C)[C@H](NC(=O)C(C)O)C(=O)O (stereo partly drawn) [Lac-Ile, N-lactoyl isoleucine]
concentration of Ile in the spent medium [3]: decreased very rapidly until day 7 and increased again afterwards
concentration of Leu in the spent medium [3]: moderately decreased
effect on viable cell density (VCD) compared to positive control [3]: no effect on the peak VCD or overall VCD profile
IgG titer compared to control [3]: slight, but not significant higher titer
increase of free lactate (area under the curve of lactate concentration) [3]: 37%
glycosylation, high and low molecular weight species and charge variants of the IgG1 versus control condition [4]: no difference
stability in Cellvento 4Feed-Ile/Leu [5]: stable
increase in solubility compared to the respective amino acid [1]: 20 fold
IgG titer compared to positive control [6]: similar
VCD compared to positive control [6]: similar
turbidity at maximum tested concentration ([2]; 951 mM in Cellvento 4Feed depleted in Ile/Leu): below 5 NTU
times more soluble than the native amino acid in Cellvento 4Feed depleted in Ile/Leu [2]: at least 9 times
solubility at 10 min [2]: ≥ 951 mM

CC(C)C[C@H](NC(=O)C(C)O)C(=O)O (stereo partly drawn) [Lac-Leu, N-lactoyl leucine]
concentration of Ile in the spent medium [3]: decreased after day 7
concentration of Leu in the spent medium [3]: decreased very rapidly until day 7 and increased again afterwards
effect on viable cell density (VCD) compared to positive control [3]: positive effect on the duration of the plateau phase
viable cell density in plateau phase ([3]; day 10 to day 14): ~15 million cells/mL
IgG titer compared to control [3]: slight, but not significant higher titer
increase of free lactate (area under the curve of lactate concentration) [3]: 20%
glycosylation, high and low molecular weight species and charge variants of the IgG1 versus control condition [4]: no difference
stability in Cellvento 4Feed-Ile/Leu [5]: stable
increase in solubility compared to the respective amino acid [1]: around 30 fold
IgG titer compared to positive control [6]: similar
VCD compared to positive control [6]: similar
times more soluble than the native amino acid in Cellvento 4Feed depleted in Ile/Leu [2]: 6.6 times
solubility at 10 min [2]: ~600 mM (≈ 122 mg/mL)

CC(O)C(=O)NC(Cc1ccccc1)C(=O)[O-].[Na+] (stereo not drawn) [Lac-Phe sodium salt]
Solubility 25° C. in g/kg (corresponding Lac-AA) [1]: 483.1 g/kg

CC(O)C(=O)NC(Cc1ccc(O)cc1)C(=O)[O-].[Na+] (stereo not drawn) [Lac-Tyr sodium salt]
Solubility 25° C. in g/kg (corresponding Lac-AA) [1]: 101.9 g/kg

CC(C)C[C@H](N)C(=O)[O-].[Na+] [Leu sodium salt]
maximum solubilities obtained in water [1]: 86.0 g/kg

CC(C)C[C@H](N)C(=O)O [Leucine]
solubility [1]: about 22.1 g/kg
maximum solubilities obtained in water [1]: 22.1 g/kg
Solubility 25° C. in g/kg (amino acid) [1]: 22.1 g/kg
solubility at 10 min [2]: ~90 mM (≈ 11.8 mg/mL)

CSCC[C@H](N)C(=O)O [Methionine]
Solubility 25° C. in g/kg (amino acid) [1]: 52.9 g/kg

N[C@@H](Cc1ccccc1)C(=O)O [Phenylalanine]
Solubility 25° C. in g/kg (amino acid) [1]: 26.0 g/kg

CC(C)[C@H](N)C(=O)O [Valine]
Solubility 25° C. in g/kg (amino acid) [1]: 57.8 g/kg
